Reference: US11147272B2, “Pyridone compounds and agricultural and horticultural fungicides comprising the same as active ingredients” (MITSUI CHEMICALS AGRO, INC., priority 2017, dated 2021)

Assays:
Magnaporthe grisea = assay: whole plant or invertebrate; format: in vivo; details: for Test A control value class: class of control value
Alternaia brassicicola = assay: Test Example C: Alternaria sooty spot on cabbage; format: in vivo
Description: Seeds of a test plant (cabbage variety: Shikidori) were planted and cultivated until the cotyledons extended.
<Control Value> Control value=100{1−(n/3)}

Puccinia recondita = assay: Test Example E: Brown rust on wheat; format: in vivo
Phytophthora infestans = assay: whole plant or invertebrate; format: in vivo; details: for Test F control value class: class of control value
Botrytis cinerea = assay: Test Example B: Gray mold on tomato; details: for Test B control value class: class of control value
Plasmopara viticola = assay: Test Example G: Downy mildew on vine; details: for Test G control value: 7 to 10 days after inoculation; for Test G control value class: Downy mildew on vine (Neomuscat), 2.5 ml/pot, assessed 7 to 10 days after inoculation
[1] = system: Colletotrichum orbiculare; assay: Test Example H: Anthracnose on cucumber; details: for Test H control value: 6 to 10 days after inoculation; for Test H control value class: Anthracnose on cucumber (Sagami Hanjiro), 2.5 ml/pot, assessed 6 to 10 days after inoculation
[2] = system: Blumeria graminis f. sp. hordei; assay: Test Example D: Powdery mildew on barley; details: for Test D control value class: class of control value
[3] = Blast on rice, control value class
[4] = Alternaria sooty spot on cabbage, control value class
[5] = Brown rust on wheat, control value class
[6] = Late blight on tomato, control value class
[7] = Gray mold on tomato, control value class
[8] = Downy mildew on vine, 250 ppm spray
[9] = Anthracnose on cucumber, 250 ppm spray
[10] = Powdery mildew on barley, control value class
[11] = 250 ppm drug solution sprayed on test plant
[12] = 250 ppm drug solution sprayed (2.5 ml/pot), grape Neomuscat
[13] = 250 ppm drug solution sprayed (2.5 ml/pot), cucumber Sagami Hanjiro
[14] = Alternaria sooty spot on cabbage, class of control value
[15] = Brown rust on wheat, class of control value

Row | SMILES | Test A control value (Magnaporthe grisea; [3]) | Test C control value (Alternaia brassicicola; [4]) | Test E control value (Puccinia recondita; [5]) | Test F control value (Phytophthora infestans; [6]) | Test B control value (Botrytis cinerea; [7]) | Test G control value (Plasmopara viticola; [8]) | Test H control value [1, 9] | Test D control value [2, 10] | Test A control value class (Magnaporthe grisea; Blast on rice) | Test C control value class (Alternaia brassicicola; [14]) | Test E control value class (Puccinia recondita; [15]) | Test F control value class (Phytophthora infestans; Late blight on tomato) | Test B control value class (Botrytis cinerea; Gray mold on tomato) | Test G control value class (Plasmopara viticola; 250 ppm spray) | Test H control value class ([1]; 250 ppm spray) | Test D control value class ([2]; Powdery mildew on barley) | other results
1 | CCCC1=C(c2ccc(F)cc2Br)N(CC)C(=O)CC1 [compound 359] | L (50% or less control value) | L (50% or less control value) | L (50% or less control value) | L (50% or less control value) | L (50% or less control value) | L (50% or less control value) | L (50% or less control value) | H (more than 50% control value) |  |  |  |  |  |  |  |  | 
2 | CCCc1cc(Cl)c(=O)n(C)c1-c1ccc(F)cc1C [compound 420] |  |  |  |  |  |  |  |  |  |  |  |  |  |  |  |  | Test A control value (Magnaporthe grisea; [11]): L (50% or less control value); Test C control value (Alternaia brassicicola; [11]): L (50% or less control value); Test E control value (Puccinia recondita; [11]): H (more than 50% control value); Test F control value (Phytophthora infestans; [11]): L (50% or less control value); Test B control value (Botrytis cinerea; [11]): H (more than 50% control value); Test G control value (Plasmopara viticola; [12]): L (50% or less control value); Test H control value [1, 13]: L (50% or less control value); Test D control value [2, 11]: H (more than 50% control value)
3 | CCn1c(-c2ccc(Cl)cc2F)c(CC(C)C)cc(Br)c1=O [compound 159] |  |  |  |  |  |  |  |  | H (more than 50% control value) | H (more than 50% control value) | H (more than 50% control value) | L (50% or less control value) | H (more than 50% control value) | H (more than 50% control value) | H (more than 50% control value) | H (more than 50% control value) | 
4 | CCCc1cc(Cl)c(=O)n(CCC)c1-c1c(F)cc(OC)cc1F [compound 443] |  |  |  |  |  |  |  |  |  |  |  |  |  |  |  |  | Test A control value (Magnaporthe grisea; [11]): L (50% or less control value); Test C control value (Alternaia brassicicola; [11]): H (more than 50% control value); Test E control value (Puccinia recondita; [11]): H (more than 50% control value); Test F control value (Phytophthora infestans; [11]): H (more than 50% control value); Test B control value (Botrytis cinerea; [11]): H (more than 50% control value); Test G control value (Plasmopara viticola; [12]): H (more than 50% control value); Test H control value [1, 13]: H (more than 50% control value); Test D control value [2, 11]: L (50% or less control value)
5 | CCOC(C)(c1cc(Cl)c(=O)n(CC)c1-c1c(F)cc(OC)cc1F)C(C)C (centres unmarked) [compound 241] | H (more than 50% control value) | H (more than 50% control value) | H (more than 50% control value) | L (50% or less control value) | H (more than 50% control value) | L (50% or less control value) | H (more than 50% control value) | H (more than 50% control value) |  |  |  |  |  |  |  |  | 
6 | CCn1c(-c2ccc(F)cc2Cl)c(C2CCCCC2)ccc1=O [compound 176] |  |  |  |  |  |  |  |  | H (more than 50% control value) | H (more than 50% control value) | H (more than 50% control value) | H (more than 50% control value) | H (more than 50% control value) | L (50% or less control value) | L (50% or less control value) | H (more than 50% control value) | 
7 | CCn1c(-c2ccc(F)cc2Cl)c(CC(C)C)ccc1=O [Compound No. 98, 6-(2-chloro-4-fluorophenyl)-1-ethyl-5-isobutylpyridin-2(1H)-one] |  |  |  |  |  |  |  |  |  |  |  |  |  |  |  |  | pest or weed control at 250 µg/mL (Magnaporthe grisea; Pyricularia oryzae, in Oryza sativa, read-out: Test A control value class): > 50%; pest or weed control at 250 µg/mL (Alternaia brassicicola; Brassica oleracea, topical, Alternaria sooty spot on cabbage, class of control value, read-out: Test C control value class): > 50%; pest or weed control at 250 µg/mL (Puccinia recondita; Puccinia recondita, topical, Brown rust on wheat, class of control value, read-out: Test E control value class): > 50%; pest or weed control at 250 µg/mL (Phytophthora infestans; Phytophthora infestans, in Solanum lycopersicum, topical, read-out: Test F control value class): < 50%; pest or weed control at 250 µg/mL (Botrytis cinerea; Botrytis cinerea, in Solanum lycopersicum, topical, read-out: Test B control value class): > 50%; pest or weed control at 250 ppm (Plasmopara viticola; Plasmopara viticola, topical, read-out: Test G control value class): < 50%; pest or weed control at 250 ppm ([1]; Colletotrichum orbiculare, in Cucumis sativus, topical, read-out: Test H control value class): < 50%; pest or weed control at 250 µg/mL ([2]; Blumeria graminis, in Hordeum vulgare, topical, read-out: Test D control value class): > 50%
8 | C#CC(O)c1cc(Cl)c(=O)n(CC)c1-c1c(F)cc(F)cc1F (centres unmarked) [compound 283] | L (50% or less control value) | H (more than 50% control value) | H (more than 50% control value) | L (50% or less control value) | H (more than 50% control value) | L (50% or less control value) | H (more than 50% control value) | L (50% or less control value) |  |  |  |  |  |  |  |  | 
9 | CC(C)c1ccc(=O)n(C)c1-c1c(F)cc(F)cc1F [compound 13] |  |  |  |  |  |  |  |  | H (more than 50% control value) | L (50% or less control value) | L (50% or less control value) | L (50% or less control value) | H (more than 50% control value) | L (50% or less control value) | L (50% or less control value) | H (more than 50% control value) | 
10 | CCn1c(-c2ccc(OC)cc2)c(C(C)(OC)C(C)C)cc(Cl)c1=O (centres unmarked) [compound 224] | L (50% or less control value) | L (50% or less control value) | H (more than 50% control value) | L (50% or less control value) | H (more than 50% control value) | L (50% or less control value) | L (50% or less control value) | L (50% or less control value) |  |  |  |  |  |  |  |  | 
11 | CCCCCc1cc(Cl)c(=O)n(CC)c1-c1ccc(F)cc1Cl [compound 209] | H (more than 50% control value) | H (more than 50% control value) | H (more than 50% control value) | L (50% or less control value) | H (more than 50% control value) | H (more than 50% control value) | H (more than 50% control value) | H (more than 50% control value) |  |  |  |  |  |  |  |  | 
12 | CCn1c(-c2c(F)cccc2F)c(C(OC)C(C)C)cc(Cl)c1=O (centres unmarked) [compound 63] |  |  |  |  |  |  |  |  | H (more than 50% control value) | H (more than 50% control value) | H (more than 50% control value) | L (50% or less control value) | H (more than 50% control value) | H (more than 50% control value) | H (more than 50% control value) | H (more than 50% control value) | 
13 | CCn1c(-c2c(F)cc(F)cc2F)c(C(C)(O)C2CCCC2)cc(Cl)c1=O (centres unmarked) [compound 244] | H (more than 50% control value) | H (more than 50% control value) | H (more than 50% control value) | L (50% or less control value) | H (more than 50% control value) | L (50% or less control value) | H (more than 50% control value) | H (more than 50% control value) |  |  |  |  |  |  |  |  | 
